Measured values taken from PubChem BioAssay (NCI).
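Abbreviation: GI50, concentration required for 50% inhibition of growth. The concentration for full growth arrest is given as TGI.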

How the values were obtained:
Assay in all cases: DTP human tumour cell line panel, 384-well format
[1] = tested on: A549 NSCLC
[2] = tested on: MALME-3M melanoma
[3] = tested on: NCI/ADR-RES ovarian
[4] = tested on: HT29 colon
[5] = tested on: MOLT-4 leukemia
[6] = tested on: OVCAR-3 ovarian
[7] = tested on: KM12 colon
[8] = tested on: NCI-H23 lung
[9] = tested on: U251 glioblastoma
[10] = tested on: MDA-MB-435 melanoma
[11] = tested on: NCI-H522 lung
[12] = tested on: RXF 393 renal
[13] = tested on: DU-145 prostate
[14] = tested on: SF-295 CNS
[15] = tested on: SF-539 CNS
[16] = tested on: A498 renal
[17] = tested on: SR leukemia
[18] = tested on: SNB-19 CNS
[19] = tested on: MDA-MB-231 breast
[20] = tested on: HOP-62 NSCLC
[21] = tested on: LOX IMVI melanoma
[22] = tested on: HCT-15 colon
[23] = tested on: IGROV1 ovarian
[24] = tested on: M14 melanoma
[25] = tested on: SK-MEL-28 melanoma
[26] = tested on: CAKI-1 renal
[27] = tested on: BT-549 breast
[28] = tested on: SK-MEL-2 melanoma
[29] = tested on: T-47D breast
[30] = tested on: TK-10 renal
[31] = tested on: NCI-H322M lung
[32] = tested on: SK-OV-3 ovarian
[33] = tested on: SF-268 CNS
[34] = tested on: RPMI-8226 leukemia
[35] = tested on: SK-MEL-5 melanoma
[36] = tested on: SNB-75 CNS
[37] = tested on: MDA-MB-468 breast
[38] = tested on: SW-620 colon
[39] = tested on: ACHN renal
[40] = tested on: UACC-257 melanoma
[41] = tested on: PC-3 prostate
[42] = tested on: OVCAR-4 ovarian
[43] = tested on: NCI-H226 lung
[44] = tested on: HCT-116 colon
[45] = tested on: MCF7 breast
[46] = tested on: K-562 leukemia
[47] = tested on: SN12C renal
[48] = tested on: HS 578T breast
[49] = tested on: HL-60(TB) leukemia
[50] = tested on: CCRF-CEM leukemia
[51] = tested on: UACC-62 melanoma
[52] = tested on: NCI-H460 NSCLC
[53] = tested on: EKVX NSCLC
[54] = tested on: COLO 205 colon

## Cc1noc2c1-c1ccccc1C(c1ccc(Cl)cc1)=N[C@H]2CC(N)=O
[1]
  GI50: 10.3 µM
  TGI: > 100 µM
[2]
  GI50: 16.4 µM
  TGI: 61.4 µM
[3]
  GI50: 0.639 µM
  TGI: 20.4 µM
[4]
  GI50: 0.508 µM
  TGI: 59.2 µM
[5]
  GI50: 0.549 µM
  TGI: 15.8 µM
[6]
  GI50: 0.812 µM
  TGI: 29.8 µM
[7]
  GI50: 6.93 µM
  TGI: 44.3 µM
[8]
  GI50: 1.14 µM
  TGI: 26.8 µM
[9]
  GI50: 10.2 µM
  TGI: > 100 µM
[10]
  GI50: 6.55 µM
  TGI: 43.5 µM
[11]
  GI50: 0.04 µM
  TGI: 0.455 µM
[12]
  GI50: 11.6 µM
  TGI: 34.2 µM
[13]
  GI50: 23.6 µM
  TGI: > 100 µM
[14]
  GI50: 18.8 µM
  TGI: > 100 µM
[15]
  GI50: 13 µM
  TGI: > 100 µM
[16]
  GI50: 1.41 µM
  TGI: 94.4 µM
[17]
  GI50: 0.0478 µM
  TGI: 1.43 µM
[18]
  GI50: 4.91 µM
  TGI: > 100 µM
[19]
  GI50: 0.612 µM
  TGI: 94.4 µM
[20]
  GI50: 0.4 µM
  TGI: 34.1 µM
[21]
  GI50: 0.473 µM
  TGI: 18.1 µM
[22]
  GI50: 0.442 µM
  TGI: 19.5 µM
[23]
  GI50: 0.564 µM
  TGI: 30.1 µM
[24]
  GI50: 13.6 µM
  TGI: > 100 µM
[25]
  GI50: 21.4 µM
  TGI: > 100 µM
[26]
  GI50: 0.227 µM
  TGI: 54.3 µM
[27]
  GI50: 0.292 µM
  TGI: 18.7 µM
[28]
  GI50: 34.2 µM
  TGI: 53.2 µM
[29]
  GI50: 6.48 µM
  TGI: 82 µM
[30]
  GI50: 0.504 µM
  TGI: 34.3 µM
[31]
  GI50: 3.01 µM
  TGI: > 100 µM
[32]
  GI50: 0.491 µM
  TGI: 38.8 µM
[33]
  GI50: 18.1 µM
  TGI: 67.7 µM
[34]
  GI50: 0.298 µM
  TGI: 12.5 µM
[35]
  GI50: 1.03 µM
  TGI: 21.3 µM
[36]
  GI50: 15.7 µM
  TGI: > 100 µM
[37]
  GI50: 0.685 µM
  TGI: 23 µM
[38]
  GI50: 21.8 µM
  TGI: 71.7 µM
[39]
  GI50: 11.5 µM
  TGI: > 100 µM
[40]
  GI50: 16.4 µM
  TGI: > 100 µM
[41]
  GI50: 0.723 µM
  TGI: > 100 µM
[42]
  GI50: 0.367 µM
  TGI: 3.29 µM
[43]
  GI50: 12.2 µM
  TGI: 44 µM
[44]
  GI50: 13.5 µM
  TGI: 54.7 µM
[45]
  GI50: 0.312 µM
  TGI: 17 µM
[46]
  GI50: 0.697 µM
  TGI: 28 µM
[47]
  GI50: 24.2 µM
  TGI: > 100 µM
[48]
  GI50: 0.292 µM
  TGI: 28.3 µM
[49]
  GI50: 0.102 µM
  TGI: 0.229 µM
[50]
  GI50: 0.629 µM
  TGI: 22.9 µM
[51]
  GI50: 0.268 µM
  TGI: 42.1 µM
[52]
  GI50: 19 µM
  TGI: > 100 µM
[53]
  GI50: 36.2 µM
  TGI: > 100 µM
[54]
  GI50: 0.78 µM
  TGI: 29 µM
